From patent US9770481B2, “Inhibitors of NOX1” (UNIVERSITY OF PITTSBURGH—OF THE COMMONWEALTH SYSTEM OF …, priority 2011, dated 2017) come the findings set out here.

In one experiment the test system is xanthine oxidase. As to the kind of experiment: O2- production by pure xanthine oxidase stimulated with hypoxanthine (EPR). Format: biochemical. The conditions noted are these: 0.1 nM to 10,000 nM. As for the experimental part: To test whether the inhibitory effect of NoxA1ds is specific to Nox1, the effect of NoxA1ds was tested on cells expressing Nox2, Nox4, and Nox5 as well as on purified xanthine oxidase enzyme. To test the effect on Nox2, production of O2^− was measured by the reduction of cytochrome c by cell lysates from COS cells transiently transfected with the Nox2 oxidase, stimulated with LiDS, and the treated with increasing concentrations of NoxA1ds (from 0.1 nM to 10,000 nM). Similarly, production of H2O2 was measured by Amplex red fluorescence by COS cells transiently transfected with the Nox4 oxidase and treated with increasing concentrations of NoxA1ds (from 100 nM to 10,000 nM). Production of O2^− was also measured by the reduction of cytochrome c by cell lysates from HEK293 cells stably transfected with the Nox5 oxidase stimulated with Ca^2+, and treated with increasing concentrations of NoxA1ds (from 0.1 nM to 10,000 nM). Finally, production of O2^− was measured by Electron Paramagnetic Resonance from pure xanthine oxidase enzyme preparations, stimulated with hypoxanthine and treated with increasing concentrations of NoxA1ds (from 0.1 nM to 10,000 nM).

In experiment [1] the test system is rat aortic smooth muscle cells. The experiment is described as follows: O2- production by rat aortic smooth muscle cells under static conditions or cyclic stretch. The experiment is classed as cell-based. As for the experimental part:
FIG. 8. NoxA1ds attenuates stretch-induced O2^− production: Effect of NoxA1ds on O2^− production by rat aortic smooth muscle cells subjected to static conditions or cyclic stretch (10%, 1 Hz, 24 hrs). NoxA1ds was added 4 hrs before measuring O2^− production.
Cyclic stretching of vascular cells occurs as a result of the pulsatile nature of blood flow but is increased in hypertensive states, and has been associated with generation of ROS and possibly cell proliferation. […] At the end of 24 hrs, cells were lysed and membrane fraction O2^− production was measured using cytochrome c.

For experiment [2], the system named is HPAEC constitutively expressing Nox1. The experiment is described as follows: Angiotensin II-induced O2- production by HPAEC (cytochrome c). The note with it: 100 nM angiotensin II, 10 μM peptide, 1 hr. Format: cell-based, human. Here is the method: FIG. 10. O2^− Production by human pulmonary artery endothelial cells (“HPAEC”) which were either (i) untreated; (ii) treated with 100 nM angiotensin II; (iii) treated with 100 nM angiotensin II and 10 μM NoxA1ds; or (iv) treated with 100 nM angiotensin II and 10 μM SCRMB peptide. Results represent mean±SEM, n=5-9, 2-3 separate experiments.
In further studies, HPAEC constitutively expressing Nox1 were treated with vehicle or Angiotensin II (AngII, one mediator of hypertension) alone or in combination with NoxA1ds, or SCRMB for 1 hr. O2^− production was then measured via reduction of cytochrome c.

Experiment [3] concerns rat aortic smooth muscle cells. The experiment is described as follows: Calponin and osteopontin expression in stretched rat aortic smooth muscle cells (Western blot). Format: cell-based. The conditions noted are these: 10 μM added every four hours; cyclic stretch 24 hrs. As for the experimental part:
The effect of Nox1 inhibition on the expression of certain protein markers of rat aortic smooth muscle cell contractile vs. synthetic phenotypes was evaluated. Cells were subjected to 24 hrs of cyclic stretch (10%, 1 Hz) with 10 μM NoxA1ds or SCRMB control being added every four hours. […] Calponin expression during stretch was rescued by the addition of 10 μM NoxA1ds, yet was unaffected by the addition of 10 μM scrambled peptide (SCRMB). A representative Western blot is shown below the graph (FIG. 9B). Osteopontin (OPN, a marker of the […] phenotype), expression increased after 24 hrs of stretch.

The test system of the next experiment is Nox1-YFP. As to the kind of experiment: Image cross correlation spectroscopy (ICCS) of R-NoxA1ds and Nox1-YFP. The note with it: unlabelled competitor. Format: binding. As for the experimental part:
An ELISA of Nox1:NoxA1ds interaction was performed as follows. Neutravidin coated plates were incubated with biotin-tagged NoxA1ds (Biotin-NoxA1ds) or biotin-tagged SCRMB (Biotin-SCRMB) before addition of cell membranes prepared from cells transfected with Nox1 (Nox1 membrane) or transfected with an empty vector (COS22 membrane). Bound Nox1 was detected through a FITC conjugated secondary antibody (αRabbit Ab Sigma F9887) bound to the Nox1 primary antibody (rabbit αNox1 Ab (SC-25545, Santa Cruz Biotechnology)). FITC fluorescence was expressed as binding as % COS22 membranes on each experimental day. […] To further confirm the association, image cross correlation spectroscopy (ICCS) was used to determine patterns in signal fluctuation between rhodamine-labeled NoxA1ds (R-NoxA1ds) and Nox1-YFP though a sequence of 100 images 0.05 s apart. Correlation and cross-correlation was calculated using an ImageJ plugin.

“Also recorded” adds a separate entry of the source.

As for “H-EPVDALGKAKV-NH2 [NoxA1ds, [NH3^+]-EPVDALGKAKV-[CONH2]]”, in the experiment on xanthine oxidase, the “Inhibitory effect on xanthine oxidase O2- production” value is “did not exhibit a significant inhibitory effect”. Also, the “Cyclic stretch-induced O2- production” value in experiment [1] (cyclic stretch 10%, 1 Hz, 24 hrs, peptide added at t=20 hrs (4 hrs before measuring)) was “completely abrogated; also recorded: inhibited”. Moreover, the “O2- production under static conditions” value in experiment [1] (static, 10 μM) was “negligible effect”. The “AngII-induced O2- production” value in experiment [2] is given as “completely inhibited”. Also, in experiment [3], the “Calponin expression during stretch” value was “rescued” and the “Osteopontin (OPN) expression during stretch” value was “returned to levels observed in the absence of stretch”. Further, the “Effect of competition with R-NoxA1ds on fractional binding” value in the experiment on Nox1-YFP is on record as “significantly reduced the fractional binding”.
